The results in this text go back to US20230382923A1, “FUSED TETRACYCLIC QUINAZOLINE DERIVATIVES AS INHIBITORS OF ERBB2” (EnLiven Therapeutics, Inc., priority 2021, published 2023).

Bounds are passed on as bounds.

For assay [1], the target named is phosphorylated ERBB2 (pERBB2) (Homo sapiens (Human), UniProt P04626). Briefly: Detection of phosphorylated ERBB2 (pERBB2) by ELISA in BT-474 cells. The format is cell-based. Particulars: four hours incubation with compound. A digest of the protocol:
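BT-474 cells were exposed to serially diluted compounds for 4 h at 37 °C, then lysed. Phospho-ERBB2 in lysates was captured by ELISA and detected with an HRP anti-phosphotyrosine antibody and TMB.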

The target in assay [2] is phosphorylated EGFR (pEGFR) (Homo sapiens (Human), UniProt P00533). Nature of the assay: Detection of phosphorylated EGFR (pEGFR) by AlphaLISA in A431 cells. Conditions: A431 cells (10% FBS), 4 hours incubation, EGF 30 ng/mL for 10 minutes. Format: cell-based. An outline of the steps:
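A431 cells in 10% FBS exposed to compound for 4 h at 37 °C, then stimulated 10 min with 30 ng/mL EGF. Lysates assayed for phospho-EGFR by AlphaLISA. % inhibition relative to DMSO and staurosporine controls; IC50 from four-parameter curve fit.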

phosphorylated EGFR (pEGFR), sequence (P00533 25-1210): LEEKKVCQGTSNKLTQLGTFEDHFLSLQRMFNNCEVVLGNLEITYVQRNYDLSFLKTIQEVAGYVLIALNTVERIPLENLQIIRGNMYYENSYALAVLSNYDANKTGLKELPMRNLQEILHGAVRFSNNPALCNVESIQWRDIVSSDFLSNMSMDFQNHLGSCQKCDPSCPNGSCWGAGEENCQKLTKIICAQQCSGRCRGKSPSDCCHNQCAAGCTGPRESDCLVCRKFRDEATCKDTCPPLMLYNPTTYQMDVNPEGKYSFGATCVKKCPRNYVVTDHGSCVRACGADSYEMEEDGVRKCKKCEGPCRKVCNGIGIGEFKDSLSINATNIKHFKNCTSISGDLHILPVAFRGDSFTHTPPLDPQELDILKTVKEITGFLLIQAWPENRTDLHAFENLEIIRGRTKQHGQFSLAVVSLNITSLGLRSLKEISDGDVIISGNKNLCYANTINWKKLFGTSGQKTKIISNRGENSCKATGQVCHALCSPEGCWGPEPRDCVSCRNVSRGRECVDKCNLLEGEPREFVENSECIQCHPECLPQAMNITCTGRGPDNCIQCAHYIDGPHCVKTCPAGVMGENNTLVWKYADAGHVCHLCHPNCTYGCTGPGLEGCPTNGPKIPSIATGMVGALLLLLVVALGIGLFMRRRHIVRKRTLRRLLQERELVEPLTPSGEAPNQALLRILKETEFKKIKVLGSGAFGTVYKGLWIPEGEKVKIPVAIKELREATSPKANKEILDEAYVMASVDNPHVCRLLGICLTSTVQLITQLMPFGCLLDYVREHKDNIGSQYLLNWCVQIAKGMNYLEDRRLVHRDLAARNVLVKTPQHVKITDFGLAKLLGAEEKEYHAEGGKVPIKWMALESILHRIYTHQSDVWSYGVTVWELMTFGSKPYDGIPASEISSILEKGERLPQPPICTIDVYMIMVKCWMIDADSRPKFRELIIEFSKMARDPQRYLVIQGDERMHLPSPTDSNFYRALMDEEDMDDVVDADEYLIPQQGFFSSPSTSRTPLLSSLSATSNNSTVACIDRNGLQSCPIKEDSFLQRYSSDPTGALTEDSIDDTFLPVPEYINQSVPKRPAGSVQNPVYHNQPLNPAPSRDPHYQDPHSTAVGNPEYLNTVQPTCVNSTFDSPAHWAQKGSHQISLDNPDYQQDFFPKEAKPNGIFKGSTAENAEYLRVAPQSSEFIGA
phosphorylated ERBB2 (pERBB2), sequence (P04626 23-1255): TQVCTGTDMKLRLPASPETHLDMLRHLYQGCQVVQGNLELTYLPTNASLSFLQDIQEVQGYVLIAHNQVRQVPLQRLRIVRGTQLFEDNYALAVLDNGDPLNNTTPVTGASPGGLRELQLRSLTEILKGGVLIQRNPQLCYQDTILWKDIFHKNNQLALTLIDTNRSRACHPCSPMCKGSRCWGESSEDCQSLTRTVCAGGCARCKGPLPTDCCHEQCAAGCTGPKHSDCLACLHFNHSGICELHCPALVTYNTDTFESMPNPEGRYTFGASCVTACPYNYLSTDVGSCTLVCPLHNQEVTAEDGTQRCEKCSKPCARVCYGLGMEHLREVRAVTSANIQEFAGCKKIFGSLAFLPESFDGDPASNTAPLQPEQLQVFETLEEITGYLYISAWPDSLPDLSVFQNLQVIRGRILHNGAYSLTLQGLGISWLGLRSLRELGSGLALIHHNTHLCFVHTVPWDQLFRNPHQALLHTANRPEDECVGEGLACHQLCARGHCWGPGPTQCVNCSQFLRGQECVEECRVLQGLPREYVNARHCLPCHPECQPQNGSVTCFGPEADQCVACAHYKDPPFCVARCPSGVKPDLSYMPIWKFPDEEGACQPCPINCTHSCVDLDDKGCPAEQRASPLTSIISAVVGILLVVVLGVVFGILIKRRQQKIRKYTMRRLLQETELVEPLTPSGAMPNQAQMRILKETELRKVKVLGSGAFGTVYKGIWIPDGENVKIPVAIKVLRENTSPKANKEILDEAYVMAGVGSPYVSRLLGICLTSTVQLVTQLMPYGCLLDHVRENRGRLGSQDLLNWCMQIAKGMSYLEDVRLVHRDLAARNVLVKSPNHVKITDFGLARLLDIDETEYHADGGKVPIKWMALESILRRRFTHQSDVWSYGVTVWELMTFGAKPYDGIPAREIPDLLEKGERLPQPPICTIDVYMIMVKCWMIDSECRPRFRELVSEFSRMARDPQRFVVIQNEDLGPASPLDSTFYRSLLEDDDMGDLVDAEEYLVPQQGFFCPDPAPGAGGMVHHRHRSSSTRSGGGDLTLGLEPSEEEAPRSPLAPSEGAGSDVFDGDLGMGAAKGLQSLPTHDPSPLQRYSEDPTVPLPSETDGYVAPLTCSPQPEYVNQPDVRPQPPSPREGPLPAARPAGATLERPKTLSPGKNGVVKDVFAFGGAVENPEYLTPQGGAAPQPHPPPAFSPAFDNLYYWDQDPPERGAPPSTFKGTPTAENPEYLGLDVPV

As for `CN(C)C/C=C/C(=O)N1CCN2CC1COc1cc3ncnc(Nc4cc(Cl)c(Oc5ccn6ncnc6c5)cc4F)c3nc12` (stereo in doubt) [Compound 43, (E)-1-((10S)-4-((4-([1,2,4]triazolo[1,5-a]pyridin-7-yloxy)-5-chloro-2-fluorophenyl)amino)-7,8,10,11-tetrahydro-9H-6,10-methanopyrimido[4′,5′:5,6]pyrido[3,2-b][1,4,7]oxadiazonin-9-yl)-4-(dimethylamino)but-2-en-1-one], the IC50 was determined as 8.69 nM in assay [1] and 1400 nM in assay [2].
On the same counts, the results for `CN(C)C/C=C/C(=O)N1CCN2CC1COc1cc3ncnc(Nc4ccc(Oc5ccn6ncnc6c5)c(F)c4)c3nc12` (stereo in doubt) [Compound 39, (E)-1-((10S)-4-((4-([1,2,4]triazolo[1,5-a]pyridin-7-yloxy)-3-fluorophenyl)amino)-7,8,10,11-tetrahydro-9H-6,10-methanopyrimido[4′,5′:5,6]pyrido[3,2-b][1,4,7]oxadiazonin-9-yl)-4-(dimethylamino)but-2-en-1-one] are 8.92 nM and 6170 nM.
Regarding `Cc1cc(Nc2ncnc3cc4c(cc23)N2CCN(C(=O)/C=C/CN(C)C)C(CO4)C2)ccc1Oc1ccc2c(c1)ncn2C` (stereo in doubt) [Compound 7, (E)-4-(dimethylamino)-1-((10S)-4-((3-methyl-4-((1-methyl-1H-benzo[d]imidazol-5-yl)oxy)phenyl)amino)-7,8,10,11-tetrahydro-9H-6,10-methano[1,4,7]oxadiazonino[3,2-g]quinazolin-9-yl)but-2-en-1-one], the half-maximal inhibitory concentration (IC50) is 41.3 nM in assay [1] and above 10000 nM in assay [2].
Take `CN(C)C/C=C/C(=O)N1CCN2CC1COc1cc3ncnc(Nc4ccc(Oc5ccn6ncnc6c5)cc4F)c3nc12` (stereo in doubt) [Compound 42, (E)-1-((10S)-4-((4-([1,2,4]triazolo[1,5-a]pyridin-7-yloxy)-2-fluorophenyl)amino)-7,8,10,11-tetrahydro-9H-6,10-methanopyrimido[4′,5′:5,6]pyrido[3,2-b][1,4,7]oxadiazonin-9-yl)-4-(dimethylamino)but-2-en-1-one]: the half-inhibitory concentration (IC50) in assay [1] came to 10.8 nM; in assay [2], 1940 nM.
In the case of `Cc1cc(Nc2ncnc3cc4c(nc23)N2CCN(C(=O)/C=C/[C@@H]3CCCN3C)C(CO4)C2)ccc1Oc1ccn2ncnc2c1` (stereo in doubt) [Compound 28, (E)-1-((10S)-4-((4-([1,2,4]triazolo[1,5-a]pyridin-7-yloxy)-3-methylphenyl)amino)-7,8,10,11-tetrahydro-9H-6,10-methanopyrimido[4′,5′:5,6]pyrido[3,2-b][1,4,7]oxadiazonin-9-yl)-3-((S)-1-methylpyrrolidin-2-yl)prop-2-en-1-one], the IC50 in assay [1] amounted to 10.8 nM; in assay [2], 8770 nM.
The matching figures for `Cc1cc(Nc2ncnc3cc4c(nc23)N2CCN(C(=O)/C=C/CN(C)C)C(CO4)C2)c(F)cc1Oc1ccn2ncnc2c1` (stereo in doubt) [Compound 24, (E)-1-((10S)-4-((4-([1,2,4]triazolo[1,5-a]pyridin-7-yloxy)-2-fluoro-5-methylphenyl)amino)-7,8,10,11-tetrahydro-9H-6,10-methanopyrimido[4′,5′:5,6]pyrido[3,2-b][1,4,7]oxadiazonin-9-yl)-4-(dimethylamino)but-2-en-1-one]: 8.38 nM and 2160 nM.
The matching figures for `CC#CC(=O)N1CCN2CC1COc1cc3ncnc(Nc4ccc(Oc5ccn6ncnc6c5)c(C)c4)c3nc12` (stereo in doubt) [Compound 18, 1-((10S)-4-((4-([1,2,4]triazolo[1,5-a]pyridin-7-yloxy)-3-methylphenyl)amino)-7,8,10,11-tetrahydro-9H-6,10-methanopyrimido[4′,5′:5,6]pyrido[3,2-b][1,4,7]oxadiazonin-9-yl)but-2-yn-1-one]: 62.8 nM and 4430 nM.
On the same counts, the results for `C=C(F)C(=O)N1CCN2CC1COc1cc3ncnc(Nc4ccc(Oc5ccn6ncnc6c5)c(C)c4)c3nc12` (stereo in doubt) [Compound 23, 1-((10S)-4-((4-([1,2,4]triazolo[1,5-a]pyridin-7-yloxy)-3-methylphenyl)amino)-7,8,10,11-tetrahydro-9H-6,10-methanopyrimido[4′,5′:5,6]pyrido[3,2-b][1,4,7]oxadiazonin-9-yl)-2-fluoroprop-2-en-1-one] are 209 nM and above 10000 nM.
`Cc1cc(Nc2ncnc3cc4c(cc23)N2CCN(C(=O)/C=C/CN(C)C)C(CO4)C2)ccc1Oc1ccn2ncnc2c1` (stereo in doubt) [Compound 9, (E)-1-((10S)-4-((4-([1,2,4]triazolo[1,5-a]pyridin-7-yloxy)-3-methylphenyl)amino)-7,8,10,11-tetrahydro-9H-6,10-methano[1,4,7]oxadiazonino[3,2-g]quinazolin-9-yl)-4-(dimethylamino)but-2-en-1-one]: the figures for the IC50 in assay [1] and in assay [2] were 18.9 nM and above 10000 nM, respectively.
As to `Cc1cc(Nc2ncnc3cc4c(nc23)N2CCN(C(=O)/C=C/C3(F)CN(C)C3)C(CO4)C2)ccc1Oc1ccn2ncnc2c1` (stereo in doubt) [Compound 53, (E)-1-((10S)-4-((4-([1,2,4]triazolo[1,5-a]pyridin-7-yloxy)-3-methylphenyl)amino)-7,8,10,11-tetrahydro-9H-6,10-methanopyrimido[4′,5′:5,6]pyrido[3,2-b][1,4,7]oxadiazonin-9-yl)-3-(3-fluoro-1-methylazetidin-3-yl)prop-2-en-1-one], the IC50 is 51.1 nM in assay [1] and 3390 nM in assay [2].
`Cc1cc(Nc2ncnc3cc4c(nc23)N2CCN(C(=O)/C=C/CN(C)C)C(CO4)C2)ccc1Oc1cncc(F)c1` (stereo in doubt) [Compound 51, (E)-4-(dimethylamino)-1-((10S)-4-((4-((5-fluoropyridin-3-yl)oxy)-3-methylphenyl)amino)-7,8,10,11-tetrahydro-9H-6,10-methanopyrimido[4′,5′:5,6]pyrido[3,2-b][1,4,7]oxadiazonin-9-yl)but-2-en-1-one]: the concentration for half-maximal inhibition (IC50) is 8.84 nM in assay [1] and 177 nM in assay [2].
